From patent US8431579B2, “Capped pyrazinoylguanidine sodium channel blockers” (Parion Sciences, Inc., priority 2003, dated 2013)

Molecular target: T1, airway epithelial sodium currents (epithelial Na+ channel, ENaC) (Canis lupus familiaris, UniProt A0A8I3MKE6+A0A8I3Q679+Q95165)
T1 sequence (A0A8I3Q679 1-649): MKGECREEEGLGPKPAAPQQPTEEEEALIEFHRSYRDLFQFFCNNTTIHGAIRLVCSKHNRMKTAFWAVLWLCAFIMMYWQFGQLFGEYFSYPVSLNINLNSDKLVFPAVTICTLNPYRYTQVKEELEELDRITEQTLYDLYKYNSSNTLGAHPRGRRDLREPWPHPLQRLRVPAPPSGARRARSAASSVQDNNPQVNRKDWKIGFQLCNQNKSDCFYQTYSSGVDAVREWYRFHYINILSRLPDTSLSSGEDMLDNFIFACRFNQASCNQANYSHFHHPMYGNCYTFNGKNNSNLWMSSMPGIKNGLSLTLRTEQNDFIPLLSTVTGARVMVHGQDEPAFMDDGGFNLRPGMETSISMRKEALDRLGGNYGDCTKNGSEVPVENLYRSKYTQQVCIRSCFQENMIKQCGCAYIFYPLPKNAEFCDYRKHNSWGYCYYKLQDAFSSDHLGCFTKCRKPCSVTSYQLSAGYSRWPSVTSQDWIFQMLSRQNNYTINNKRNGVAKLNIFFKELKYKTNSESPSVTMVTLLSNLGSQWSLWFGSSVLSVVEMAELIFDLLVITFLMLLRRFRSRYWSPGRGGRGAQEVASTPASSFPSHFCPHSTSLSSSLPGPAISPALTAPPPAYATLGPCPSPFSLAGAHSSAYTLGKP
T1 sequence (Q95165 1-641): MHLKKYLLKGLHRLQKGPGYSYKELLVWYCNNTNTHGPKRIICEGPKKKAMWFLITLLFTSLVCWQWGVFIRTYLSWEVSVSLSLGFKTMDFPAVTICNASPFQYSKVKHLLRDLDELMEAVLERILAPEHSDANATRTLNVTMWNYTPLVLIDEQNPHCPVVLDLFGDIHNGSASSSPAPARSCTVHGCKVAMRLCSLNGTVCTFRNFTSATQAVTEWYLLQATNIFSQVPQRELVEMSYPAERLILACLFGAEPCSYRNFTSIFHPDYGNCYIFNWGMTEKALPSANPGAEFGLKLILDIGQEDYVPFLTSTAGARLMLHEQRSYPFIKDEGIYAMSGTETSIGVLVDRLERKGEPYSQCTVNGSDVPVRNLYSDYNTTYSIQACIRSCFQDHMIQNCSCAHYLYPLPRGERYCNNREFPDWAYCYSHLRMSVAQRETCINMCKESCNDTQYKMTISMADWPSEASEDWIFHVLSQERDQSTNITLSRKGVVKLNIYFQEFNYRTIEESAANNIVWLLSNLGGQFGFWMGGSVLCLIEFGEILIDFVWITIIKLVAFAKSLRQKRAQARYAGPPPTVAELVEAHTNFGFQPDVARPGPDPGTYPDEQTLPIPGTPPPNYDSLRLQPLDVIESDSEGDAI
T1 sequence (A0A8I3MKE6 1-646): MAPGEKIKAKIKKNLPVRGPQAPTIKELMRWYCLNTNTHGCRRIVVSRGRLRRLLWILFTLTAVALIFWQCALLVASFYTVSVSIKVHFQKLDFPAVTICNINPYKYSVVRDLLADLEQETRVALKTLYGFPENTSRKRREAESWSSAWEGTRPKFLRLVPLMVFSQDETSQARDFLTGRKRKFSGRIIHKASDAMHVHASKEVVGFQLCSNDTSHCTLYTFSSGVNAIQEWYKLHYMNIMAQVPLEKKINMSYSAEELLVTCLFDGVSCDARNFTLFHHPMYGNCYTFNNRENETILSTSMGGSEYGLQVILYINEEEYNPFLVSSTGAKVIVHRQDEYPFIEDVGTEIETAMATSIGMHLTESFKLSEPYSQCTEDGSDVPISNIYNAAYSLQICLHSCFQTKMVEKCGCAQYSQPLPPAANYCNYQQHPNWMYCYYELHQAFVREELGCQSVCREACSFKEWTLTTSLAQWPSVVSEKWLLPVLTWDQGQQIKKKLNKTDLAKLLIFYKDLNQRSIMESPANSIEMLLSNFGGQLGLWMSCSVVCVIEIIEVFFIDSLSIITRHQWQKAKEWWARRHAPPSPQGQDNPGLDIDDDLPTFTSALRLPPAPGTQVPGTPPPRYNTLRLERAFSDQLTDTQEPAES
Test: In vitro measure of sodium channel blocking activity (short circuit current, airway epithelial monolayers in Ussing chambers)
Format: cell-based, human, dog, sheep or rodent
Conditions: lumenal drug inhibition of ISC in airway epithelial monolayers, value ± spread, n in same cell
Protocol: In Vitro Measure of Sodium Channel Blocking Activity and Reversibility
One assay used to assess mechanism of action and/or potency of the compounds of the present invention involves the determination of lumenal drug inhibition of airway epithelial sodium currents measured under short circuit current (ISC) using airway epithelial monolayers mounted in Ussing chambers. Cells obtained from freshly excised human, dog, sheep or rodent airways are seeded onto porous 0.4 micron Snapwell™ Inserts (CoStar), cultured at air-liquid interface (ALI) conditions in hormonally defined media, and assayed for sodium transport activity (ISC) while bathed in Krebs Bicarbonate Ringer (KBR) in Using chambers. All test drug additions are to the lumenal bath with half-log dose addition protocols (from 1×10^−11 M to 3×10^−5M), and the cumulative change in ISC (inhibition) recorded. All drugs are prepared in dimethyl sulfoxide as stock solutions at a concentration of 1×10^−2 M and stored at −20° C. Eight preparations are typically run in parallel; two preparations per run incorporate amiloride and/or benzamil as positive controls. After the maximal concentration (5×10^−5 M) is administered, the lumenal bath is exchanged three times with fresh drug-free KBR solution, and the resultant ISC measured after each wash for approximately 5 minutes in duration. Reversibility is defined as the percent return to the baseline value for sodium current after the third wash. All data from the voltage clamps are collected via a computer interface and analyzed off-line.
Dose-effect relationships for all compounds are considered and analyzed by the Prism 3.0 program. IC50 values, maximal effective concentrations, and reversibility are calculated and compared to amiloride and benzamil as positive controls.

Compound | EC50 [nM]
N=C(NCCCCc1ccc(OCC(O)COCC(O)CO)cc1)NC(=O)c1nc(Cl)c(N)nc1N (centres unmarked) [compound 15143] | 7 ± 3
N#CCOc1ccc(CCCCNC(=N)NC(=O)c2nc(Cl)c(N)nc2N)cc1 [compound 16208] | 11 ± 4
CN(C)C(=O)COc1ccc(CCCCNC(=N)NC(=O)c2nc(Cl)c(N)nc2N)cc1 [compound 16313] | 15 ± 4
N=C(NCCCCc1ccc(OCC(=O)NCC(N)=O)cc1)NC(=O)c1nc(Cl)c(N)nc1N [compound 16314] | 13 ± 2
N=C(NCCCCc1ccc(OCC(=O)Nc2ncc[nH]2)cc1)NC(=O)c1nc(Cl)c(N)nc1N [compound 16437] | 13 ± 7
N=C(NCCCCc1ccc(OCC(=O)Nc2ccccc2)cc1)NC(=O)c1nc(Cl)c(N)nc1N [compound 17482] | 16 ± 4
CN(C)C(=S)Oc1ccc(CCCCNC(=N)NC(=O)c2nc(Cl)c(N)nc2N)cc1 [compound 17846] | 11 ± 6
N=C(NCCCCc1ccc(OCCCc2nnn[nH]2)cc1)NC(=O)c1nc(Cl)c(N)nc1N [compound 17926] | 25 ± 9
CC(C)[C@H](NS(=O)(=O)c1ccc(CCCCNC(=N)NC(=O)c2nc(Cl)c(N)nc2N)cc1)C(N)=O [compound 19008] | 9 ± 1
N=C(NCCCCc1ccc(OCCCc2ncc[nH]2)cc1)NC(=O)c1nc(Cl)c(N)nc1N [compound 23022] | 12 ± 3

System: not given
Test: not given
Conditions: not given

melting point [°C] | Compound
114 to 121.16 | N=C(NCCCCc1ccc(OCC(=O)N(CCO)CCO)cc1)NC(=O)c1nc(Cl)c(N)nc1N
